The source of these data is paper PMC11822212, “High-throughput screening identifies Aurora kinase B as a critical therapeutic target for Merkel cell carcinoma” (Nature Communications, 2025).

Assay [1] concerns HACAT cells. As to the kind of experiment: qHTS cell viability (CellTiter-Glo, 72 h; primary screen), control cell line. The assay is classed as cell-based, human.
The subject of assay [2] is CRL-7250 cells. The assay is described as above. The assay is classed as cell-based.
The subject of assay [3] is NIH-3T3 cells. Described as above. The format is cell-based, mouse.
Assay [4] deals with WAGA cells (VP-MCC). As to the kind of experiment: qHTS cell viability (CellTiter-Glo, 72 h; primary and follow-up small molecule screen). The assay is classed as cell-based, human. On the technique in general: qHTS replaces the single test concentration by a dilution series.
The subject of assay [5] is MCC26 cells (VN-MCC). The assay is described as above. The format is cell-based, human.
Assay [6] relates to six MCC cell lines and four control cell lines. As to the kind of experiment: qHTS cell viability, all 10 cell lines screened. The format is cell-based.
The subject of assay [7] is VP-MCC cell lines (WAGA, MKL-1, MKL-2). As to the kind of experiment: qHTS cell viability, VP-MCC cell lines as a group (mean AUC, VP.MCC.avg). The assay is classed as cell-based, human.
Assay [8] deals with UISO cells (VN-MCC). As to the kind of experiment: qHTS cell viability (CellTiter-Glo, 72 h; primary and follow-up small molecule screen). The assay is classed as cell-based, human.
Assay [9] relates to VN-MCC cell lines (MCC13, MCC26, UISO). As to the kind of experiment: qHTS cell viability, VN-MCC cell lines as a group (mean AUC, VN.MCC.avg). The assay is classed as cell-based, human.
For assay [10], the system named is MKL-1 cells (VP-MCC). The assay is described as follows: qHTS cell viability (CellTiter-Glo, 72 h; primary and follow-up small molecule screen). The assay is classed as cell-based, human.
The test system of assay [11] is MCC cell lines (WAGA, MKL-1, MKL-2, MCC13, MCC26, UISO). As to the kind of experiment: qHTS cell viability, all six MCC cell lines as a group (mean AUC, MCC.avg). The format is cell-based, human.
The subject of assay [12] is MCC13 cells (VN-MCC). The assay is described as follows: qHTS cell viability (CellTiter-Glo, 72 h; primary and follow-up small molecule screen). The assay is classed as cell-based, human.
Assay [13] concerns control cell lines (HACAT, HEK293T, CRL-7250, NIH-3T3). As to the kind of experiment: qHTS cell viability, control cell lines as a group (mean AUC, Control.avg). The assay is classed as cell-based.
The test system of assay [14] is HEK293T cells. As to the kind of experiment: qHTS cell viability (CellTiter-Glo, 72 h; primary screen), control cell line. The format is cell-based, human.
Assay [15] relates to MKL-2 cells (VP-MCC). The assay is described as follows: qHTS cell viability (CellTiter-Glo, 72 h; primary and follow-up small molecule screen). The assay is classed as cell-based, human.
The mark [16] stands for this setting: NPC library, qHTS dose-response AUC, HACAT control.
Setting [17] is: NPC library, qHTS dose-response AUC, CRL7250 control.
[18] abbreviates: NPC library, qHTS dose-response AUC, NIH3T3 control.
Where [19] appears, read: NPC library, qHTS dose-response AUC, WAGA.
Where [20] appears, read: NPC library, qHTS dose-response AUC, MCC26.
Where [21] appears, read: NPC library, therapeutic window: Control avg AUC minus MCC avg AUC.
Where [22] appears, read: NPC library, mean AUC of VP-MCC cell lines.
[23] abbreviates: NPC library, therapeutic window: Control avg AUC minus VP-MCC avg AUC.
The mark [24] stands for this setting: NPC library, qHTS dose-response AUC, UISO.
[25] abbreviates: NPC library, mean AUC of VN-MCC cell lines.
The mark [26] stands for this setting: NPC library, therapeutic window: Control avg AUC minus VN-MCC avg AUC.
[27] abbreviates: NPC library, qHTS dose-response AUC, MKL1.
[28] abbreviates: NPC library, mean AUC of six MCC cell lines.
Setting [29] is: NPC library, qHTS dose-response AUC, MCC13.
[30] abbreviates: NPC library, mean AUC of control cell lines.
Where [31] appears, read: NPC library, qHTS dose-response AUC, HEK293T control.
Setting [32] is: NPC library, qHTS dose-response AUC, MKL2.

Counter-ions that a name gives are not always drawn. Like-named read-outs stand apart in the source and are kept apart here.

With `COc1cc(NC(C)CCCN)c2ncccc2c1` (stereo not drawn) [Primaquine diphosphate], the HACAT_AUC in assay [1] stood at 484.209. Further, the CRL7250_AUC in assay [2] stood at 485.915. Further, the NIH3T3_AUC in [3] worked out at 490.172. In [4], this compound gave a WAGA_AUC of 404.704. This compound also had an MCC26_AUC in assay [5] of 495.867. In assay [6], this compound returned a Control-MCC of 40.202. Further, in assay [7], the Control-VP-MCC is recorded as 69.0896 and the VP-MCC_Avg_AUC is 409.912. The same compound displayed a UISO_AUC in assay [8] of 458.954. Further, in [9], the Control-VN-MCC is on record as 11.3144 and the VN-MCC_Avg_AUC worked out at 467.687. The same compound registered an MKL1_AUC in [10] of 406.282. The MCC_Avg_AUC in assay [11] worked out at 438.799. Further, in assay [12], the MCC13_AUC turned out to be 448.24. This compound also displayed a Control_Avg_AUC in assay [13] of 479.001. For the same compound, the HEK293T_AUC in assay [14] was 455.709. The MKL2_AUC in assay [15] is listed as 418.75.
For `CCCC(C(=O)OCCN(CC)CC)(c1ccccc1)c1ccccc1` [Proadifen hydrochloride], the HACAT_AUC in assay [1] (setting [16]) is 477.751. Also, the CRL7250_AUC in [2] (setting [17]) is 484.159. This compound returned an NIH3T3_AUC in assay [3] (setting [18]) of 451.129. The WAGA_AUC in assay [4] (setting [19]) came to 421.101. The compound also returned an MCC26_AUC in assay [5] (setting [20]) of 413.531. In assay [6] (setting [21]), this compound displayed a Control-MCC of 46.7182. The same compound yielded a VP-MCC_Avg_AUC in assay [7] (setting [22]) of 400.877. In [7] (setting [23]), this compound registered a Control-VP-MCC of 59.0165. Also, the UISO_AUC in assay [8] (setting [24]) turned out to be 416.723. Further, the VN-MCC_Avg_AUC in assay [9] (setting [25]) is 425.473. Further, in [9] (setting [26]), the Control-VN-MCC is 34.42. Moreover, in assay [10] (setting [27]), the MKL1_AUC amounted to 383.197. Moreover, the MCC_Avg_AUC in assay [11] (setting [28]) came to 413.175. The compound further gave an MCC13_AUC in [12] (setting [29]) of 446.167. The compound further returned a Control_Avg_AUC in [13] (setting [30]) of 459.893. In addition, the HEK293T_AUC in [14] (setting [31]) came to 426.534. Also, the MKL2_AUC in [15] (setting [32]) was determined as 398.333.
On to `O=C(CCN1CCC(c2ccccc2)C1)c1ccc2c(c1)OCCO2` (stereo not drawn) [Proroxan], for which, in assay [1] (setting [16]), the HACAT_AUC amounted to 483.91. Besides, the CRL7250_AUC in [2] (setting [17]) was determined as 469.26. The NIH3T3_AUC in assay [3] (setting [18]) stood at 459.69. This compound came in with a WAGA_AUC in assay [4] (setting [19]) of 401.693. Moreover, the “Area under the dose-response curve (AUC) WAGA Replicate 1” value in assay [4] (follow-up screen, WAGA, replicate 1) was determined as 471.3. Also, the “Area under the dose-response curve (AUC) WAGA Replicate 2” value in assay [4] (follow-up screen, WAGA, replicate 2) was 460.1. The “Area under the dose-response curve (AUC) WAGA Replicate 3” value in assay [4] (follow-up screen, WAGA, replicate 3) was 475.6. Further, the MCC26_AUC in [5] (setting [20]) was 531.522. In [5] (follow-up screen, MCC26, replicate 1), the “Area under the dose-response curve (AUC) MCC26 Replicate 1” value stood at 461.4. Besides, the “Area under the dose-response curve (AUC) MCC26 Replicate 2” value in assay [5] (follow-up screen, MCC26, replicate 2) was determined as 445.0. For the same compound, the “Area under the dose-response curve (AUC) MCC26 Replicate 3” value in [5] (follow-up screen, MCC26, replicate 3) is listed as 478.9. In [6] (setting [21]), the Control-MCC is reported as 21.1361. The compound also registered a VP-MCC_Avg_AUC in assay [7] (setting [22]) of 394.094. In addition, in assay [7] (setting [23]), the Control-VP-MCC was determined as 67.3656. Further, the UISO_AUC in assay [8] (setting [24]) is 463.935. Also, the “Area under the dose-response curve (AUC) UISO Replicate 1” value in assay [8] (follow-up screen, UISO, replicate 1) was 440.8. The “Area under the dose-response curve (AUC) UISO Replicate 2” value in assay [8] (follow-up screen, UISO, replicate 2) is given as 468.5. Further, the “Area under the dose-response curve (AUC) UISO Replicate 3” value in assay [8] (follow-up screen, UISO, replicate 3) was 484.4. The compound further had a VN-MCC_Avg_AUC in assay [9] (setting [25]) of 486.553. Moreover, the Control-VN-MCC in assay [9] (setting [26]) is listed as -25.0934. Further, in assay [10] (setting [27]), the MKL1_AUC was 401.495. The “Area under the dose-response curve (AUC) MKL-1 Replicate 1” value in [10] (follow-up screen, MKL-1, replicate 1) came to 420.7. The “Area under the dose-response curve (AUC) MKL-1 Replicate 2” value in assay [10] (follow-up screen, MKL-1, replicate 2) was determined as 440.6. Also, the “Area under the dose-response curve (AUC) MKL-1 Replicate 3” value in assay [10] (follow-up screen, MKL-1, replicate 3) is 412.1. In assay [11] (setting [28]), this compound displayed an MCC_Avg_AUC of 440.324. In assay [12] (setting [29]), the MCC13_AUC amounted to 464.203. For the same compound, the “Area under the dose-response curve (AUC) MCC13 Replicate 1” value in assay [12] (follow-up screen, MCC13, replicate 1) is 493.7. The “Area under the dose-response curve (AUC) MCC13 Replicate 2” value in assay [12] (follow-up screen, MCC13, replicate 2) is listed as 500.7. Further, the “Area under the dose-response curve (AUC) MCC13 Replicate 3” value in [12] (follow-up screen, MCC13, replicate 3) is 474.6. Also, the Control_Avg_AUC in assay [13] (setting [30]) is on record as 461.46. In addition, the HEK293T_AUC in assay [14] (setting [31]) amounted to 432.979. In [15] (setting [32]), the MKL2_AUC is 379.094. Moreover, the “Area under the dose-response curve (AUC) MKL-2 Replicate 1” value in assay [15] (follow-up screen, MKL-2, replicate 1) came to 423.0. Moreover, in assay [15] (follow-up screen, MKL-2, replicate 2), the “Area under the dose-response curve (AUC) MKL-2 Replicate 2” value was 412.3. Moreover, in assay [15] (follow-up screen, MKL-2, replicate 3), the “Area under the dose-response curve (AUC) MKL-2 Replicate 3” value amounted to 429.1.
